# Values quoted from earlier work in US20050003003A1, “Modulation of release from dry powder formulations” (Advanced Inhalation Research, Inc., priority 1999, published 2005).
# Conditions: Table 1, phospholipids with low transition temperatures
row,Transition Temperature [°C],Compound
1,23,"CCCCCCCCCCCCCC(=O)OC[C@H](COP(=O)(O)OCC(O)CO)OC(=O)CCCCCCCCCCCCC (mixture of isomers) [DMPG, 1,2-Dimyristoyl-sn-glycero-3-[phospho-rac-(1-glycerol)]]"
2,41,"CCCCCCCCCCCCCCCC(=O)OC[C@H](COP(=O)(O)OCC(O)CO)OC(=O)CCCCCCCCCCCCCCC (mixture of isomers) [DPPG, 1,2-Dipalmitoyl-sn-glycero-3-[phospho-rac-(1-glycerol)]]"
3,30,CCCCCCCCCCCCCCCCCC(=O)OC[C@H](COP(=O)([O-])OCC[N+](C)(C)C)OC(=O)CCCCCCCCCCCCC [1-Stearoyl-2-myristoyl-sn-glycero-3-phosphocholine]
4,31,"CCCCCCCCCCCC(=O)OC[C@H](COP(=O)(O)O)OC(=O)CCCCCCCCCCC [DLPA, 1,2-Dilauroyl-sn-glycero-3-phosphate]"
5,23,"CCCCCCCCCCCCCC(=O)OC[C@H](COP(=O)([O-])OCC[N+](C)(C)C)OC(=O)CCCCCCCCCCCCC [DMPC, 1,2-Dimyristoyl-sn-glycero-3-phosphocholine]"
6,41,"CCCCCCCCCCCCCCCC(=O)OC[C@H](COP(=O)([O-])OCC[N+](C)(C)C)OC(=O)CCCCCCCCCCCCCCC [DPPC, 1,2-Dipalmitoyl-sn-glycero-3-phosphocholine]"

# More lines, now with the values behind:
row,Compound,Transition Temperature [°C]
1,"CCCCCCCCCCCCCC(=O)OC[C@H](COP(=O)(O)OC[C@H](N)C(=O)O)OC(=O)CCCCCCCCCCCCC [1,2-Dimyristoyl-sn-glycero-3-[phospho-L-serine]]",35
2,"CCCCCCCCCCCCCCC(=O)OC[C@H](COP(=O)([O-])OCC[N+](C)(C)C)OC(=O)CCCCCCCCCCCCCC [1,2-Dipentadecanoyl-sn-glycero-3-phosphocholine]",33
3,"CCCCCCCCCCCCC(=O)OC[C@H](COP(=O)([O-])OCC[N+](C)(C)C)OC(=O)CCCCCCCCCCCC [1,2-Ditridecanoyl-sn-glycero-3-phosphocholine]",14
4,CCCCCCCCCCCCCCCC(=O)O[C@H](COC(=O)CCCCCCCCCCCCC)COP(=O)([O-])OCC[N+](C)(C)C [1-Myristoyl-2-palmitoyl-sn-glycero-3-phosphocholine],35
5,CCCCCCCCCCCCCCCCCC(=O)O[C@H](COC(=O)CCCCCCCCCCCCC)COP(=O)([O-])OCC[N+](C)(C)C [1-Myristoyl-2-stearoyl-sn-glycero-3-phosphocholine],40
6,CCCCCCCCCCCCCCCC(=O)OC[C@H](COP(=O)([O-])OCC[N+](C)(C)C)OC(=O)CCCCCCCCCCCCC [1-Palmitoyl-2-myristoyl-sn-glycero-3-phosphocholine],27
7,"CCCCCCCCCCCC(=O)OC[C@H](COP(=O)([O-])OCC[N+](C)(C)C)OC(=O)CCCCCCCCCCC [DLPC, 1,2-Dilauroyl-sn-glycero-3-phosphocholine]",−1
8,"CCCCCCCCCCCC(=O)OC[C@H](COP(=O)(O)OCCN)OC(=O)CCCCCCCCCCC [DLPE, 1,2-Dilauroyl-sn-glycero-3-phosphoethanolamine]",29

# Same assay, conditions: Table 2, phospholipids with high transition temperatures
row,Transition Temperature [°C],Compound
1,55,"CCCCCCCCCCCCCCCCCC(=O)OCC(COP(=O)(O)OCC(O)CO)OC(=O)CCCCCCCCCCCCCCCCC (racemic) [DSPG, 1,2-Distearoyl-sn-glycero-3-[phospho-rac-(1-glycerol)]]"
2,49,CCCCCCCCCCCCCCCCCC(=O)O[C@H](COC(=O)CCCCCCCCCCCCCCC)COP(=O)([O-])OCC[N+](C)(C)C [1-Palmitoyl-2-stearoyl-sn-glycero-3-phosphocholine]
3,50,"CCCCCCCCCCCCCC(=O)OC[C@H](COP(=O)(O)O)OC(=O)CCCCCCCCCCCCC [DMPA, 1,2-Dimyristoyl-sn-glycero-3-phosphate]"
4,67,"CCCCCCCCCCCCCCCC(=O)OC[C@H](COP(=O)(O)O)OC(=O)CCCCCCCCCCCCCCC [DPPA, 1,2-Dipalmitoyl-sn-glycero-3-phosphate]"
5,55,"CCCCCCCCCCCCCCCCCC(=O)OC[C@H](COP(=O)([O-])OCC[N+](C)(C)C)OC(=O)CCCCCCCCCCCCCCCCC [DSPC, 1,2-Distearoyl-sn-glycero-3-phosphocholine]"
6,74,"CCCCCCCCCCCCCCCCCC(=O)OC[C@H](COP(=O)(O)OCCN)OC(=O)CCCCCCCCCCCCCCCCC [DSPE, 1,2-Distearoyl-sn-glycero-3-phosphoethanolamine]"

# Second part, the compound before the results:
row,Compound,Transition Temperature [°C]
1,"CCCCCCCCCCCCCCCCC(=O)OC[C@H](COP(=O)([O-])OCC[N+](C)(C)C)OC(=O)CCCCCCCCCCCCCCCC [1,2-Diheptadecanoyl-sn-glycero-3-phosphocholine]",48
2,"CCCCCCCCCCCCCCCC(=O)OC[C@H](COP(=O)(O)OC[C@H](N)C(=O)O)OC(=O)CCCCCCCCCCCCCCC [1,2-Dipalmitoyl-sn-glycero-3-[phospho-L-serine]]",54
3,"CCCCCCCCCCCCCCCCCC(=O)OC[C@H](COP(=O)(O)OC[C@H](N)C(=O)O)OC(=O)CCCCCCCCCCCCCCCCC [1,2-Distearoyl-sn-glycero-3-[phospho-L-serine]]",68
4,"CCCCCCCCCCCCCC(=O)OC[C@H](COP(=O)(O)OCCN)OC(=O)CCCCCCCCCCCCC [DMPE, 1,2-Dimyristoyl-sn-glycero-3-phosphoethanolamine]",50
5,"CCCCCCCCCCCCCCCC(=O)OC[C@H](COP(=O)(O)OCCN)OC(=O)CCCCCCCCCCCCCCC [DPPE, 1,2-Dipalmitoyl-sn-glycero-3-phosphoethanolamine]",63

# Same assay, conditions: bulk hydrated state
row,transition temperature (Tc),Compound
1,approximately 41 °C,"CCCCCCCCCCCCCCCC(=O)OC[C@H](COP(=O)([O-])OCC[N+](C)(C)C)OC(=O)CCCCCCCCCCCCCCC [DPPC, 1,2-Dipalmitoyl-sn-glycero-3-phosphocholine]"
2,approximately 55 °C,"CCCCCCCCCCCCCCCCCC(=O)OC[C@H](COP(=O)([O-])OCC[N+](C)(C)C)OC(=O)CCCCCCCCCCCCCCCCC [DSPC, 1,2-Distearoyl-sn-glycero-3-phosphocholine]"

row,Compound,transition temperature (Tc)
1,"CCCCCCCCCCCCCCCC(=O)OC[C@H](COP(=O)(O)OCCN)OC(=O)CCCCCCCCCCCCCCC [DPPE, 1,2-Dipalmitoyl-sn-glycero-3-phosphoethanolamine]",approximately 63 °C

# Same assay, conditions: phospholipid of the formulation
row,theoretical transition [°C],Compound
1,41,"CCCCCCCCCCCCCCCC(=O)OC[C@H](COP(=O)([O-])OCC[N+](C)(C)C)OC(=O)CCCCCCCCCCCCCCC [DPPC, 1,2-Dipalmitoyl-sn-glycero-3-phosphocholine]"
2,55,"CCCCCCCCCCCCCCCCCC(=O)OC[C@H](COP(=O)([O-])OCC[N+](C)(C)C)OC(=O)CCCCCCCCCCCCCCCCC [DSPC, 1,2-Distearoyl-sn-glycero-3-phosphocholine]"
